Experimental data taken from patent US20250230147A1, “LACTAMS AS CBL-B INHIBITORS” (Genentech, Inc., priority 2021, published 2025).
pIC50: −log10 of the molar value. Counter-ions that a name gives are not always drawn.

Key:
Cbl-b = Cbl-b (Homo sapiens (Human), UniProt Q13191); assay: Cbl-b LCK Ub TR-FRET assay (Cbl-b Lck HTRF); type: biochemical
Experimental: Compounds were 3-fold serially diluted in DMSO in a 384-well polypropylene plate (#P-05525-BC; Labcyte) to generate a source plate with 10 concentrations of each compound, top concentration=2 mM. 80 nL of DMSO or compounds were transferred to each well of a black 384-well ProxiPlate (#6008260; PerkinElmer) using a Labcyte Echo. 1×assay buffer (50 mM HEPES pH7.0, 100 mM NaCl, 0.01% BSA, 0.01% Triton-X100, 1 mM DTT), 2×enzyme solution (16 nM Biotin-Cbl-b or 12 nM Biotin-c-Cbl in 1× assay buffer), 2×kinase mixture (120 nM His-LCK, 1 mM ATP, 10 mM MgCl2 in assay buffer) and 2.33×detection mixture (4.66×solution 1: 163 nM Anti-HA-D2 antibody (#610HADAB; PerkinElmer), 27.96 nM Streptavidin-EU (#AD0062; PerkinElmer), 1.398 mM EDTA in 1×assay buffer+4.66×solution 2: 2.796 μM UBE2D2/Methylated-HA-Ubiquitin thioester adduct (BostonBiochem) in 1×assay buffer) were prepared. 4 μL of 2× enzyme solution was added to each well containing compound, briefly centrifuged to mix, and incubated for 60 min at room temperature. 4 μL of 2× kinase mixture was added, briefly centrifuged to mix, and incubated for 90 min. at room temperature. 6 μL of detection mixture was added to all wells and briefly centrifuged before incubating for 20 min at room temperature. Plates were read for TR-FRET using an Envision at excitation 340 nm, emission at 615 and 665 nm, 4 flashes per well. IC50 was generated using no LCK as the low control and DMSO as the high control.
Cbl-b Lck HTRF data in Table 7 is measured according to Example 76 herein; C-cbl Lck HTRF data is measured according to Example 76 herein.

c-Cbl = c-Cbl (Homo sapiens (Human), UniProt P22681); assay: C-Cbl LCK Ub TR-FRET assay (c-cbl Lck HTRF); type: biochemical; details: for (fold-selectivity): C-cbl Lck HTRF IC50 relative to Cbl-b Lck HTRF IC50
Sequence of c-Cbl (P22681 47-435): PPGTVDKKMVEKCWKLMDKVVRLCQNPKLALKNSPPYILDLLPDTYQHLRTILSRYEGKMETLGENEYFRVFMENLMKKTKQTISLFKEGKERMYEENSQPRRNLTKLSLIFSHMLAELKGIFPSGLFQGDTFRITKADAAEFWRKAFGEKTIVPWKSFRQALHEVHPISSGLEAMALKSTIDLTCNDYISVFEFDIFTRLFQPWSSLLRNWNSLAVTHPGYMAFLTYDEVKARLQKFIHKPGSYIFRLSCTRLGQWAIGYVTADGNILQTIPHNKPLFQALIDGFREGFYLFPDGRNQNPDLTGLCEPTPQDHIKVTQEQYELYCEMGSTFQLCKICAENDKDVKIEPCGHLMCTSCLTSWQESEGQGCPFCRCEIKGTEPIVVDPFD
Experimental: 6 μL of detection mixture was added to all wells and briefly centrifuged before incubating for 20 min at room temperature. […] IC50 was generated using no LCK as the low control and DMSO as the high control.

Sequence of Cbl-b (Q13191 40-426): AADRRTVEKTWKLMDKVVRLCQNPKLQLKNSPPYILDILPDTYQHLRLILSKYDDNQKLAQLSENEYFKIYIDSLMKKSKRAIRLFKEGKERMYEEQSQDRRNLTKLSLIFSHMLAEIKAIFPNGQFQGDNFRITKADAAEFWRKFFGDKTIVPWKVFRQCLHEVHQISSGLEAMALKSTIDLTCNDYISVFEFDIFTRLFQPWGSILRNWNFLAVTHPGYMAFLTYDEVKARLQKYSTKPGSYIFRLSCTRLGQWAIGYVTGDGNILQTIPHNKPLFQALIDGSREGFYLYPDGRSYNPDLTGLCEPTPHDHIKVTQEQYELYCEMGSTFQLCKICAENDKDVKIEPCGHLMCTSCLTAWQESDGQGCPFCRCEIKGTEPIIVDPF

| SMILES | pIC50 (Cbl-b) | pIC50 (c-Cbl) | (fold-selectivity) (c-Cbl) |
| --- | --- | --- | --- |
| CNc1cc(C2(Cc3nncn3C)CCC2)cc(N2Cc3c(cc(CNC4(C)CCC4)cc3C(F)(F)F)C2=O)n1 [Compound 310, 2-(4-(1-((4-methyl-4H-1,2,4-triazol-3-yl)methyl)cyclobutyl)-6-(methylamino)pyridin-2-yl)-6-(((1-methylcyclobutyl)amino)methyl)-4-(trifluoromethyl)isoindolin-1-one formate] | 8.00 | 7.96 |  |
| CCCC1(O)CN(Cc2cc3c(c(C(F)(F)F)c2)CN(c2cccc(C4([C@H](F)c5nncn5C)COC4)c2)C3=O)C1 [Compound 172, (S)-2-(3-(3-(fluoro(4-methyl-4H-1,2,4-triazol-3-yl)methyl)oxetan-3-yl)phenyl)-6-((3-hydroxy-3-propylazetidin-1-yl)methyl)-4-(trifluoromethyl)isoindolin-1-one] | 6.74 | 6.28 | 2.9x |
| CC[C@H]1CN(C)CCN1Cc1cc2c(c(C(F)(F)F)c1)CN(c1cccc(C3(Cc4nncn4C)CC(F)(F)C3)c1)C2=O [Compound 401, (S)-2-(3-(3,3-difluoro-1-((4-methyl-4H-1,2,4-triazol-3-yl)methyl)cyclobutyl)phenyl)-6-((2-ethyl-4-methylpiperazin-1-yl)methyl)-4-(trifluoromethyl)isoindolin-1-one] | 7.54 | 7.57 | (0.95x) |
| Cn1cnnc1[C@@H](F)C1(c2cccc(N3Cc4c(cc(CN5CC(C)(CCl)C5)cc4C(F)(F)F)C3=O)c2)COC1 [Compound 104, (S)-6-((3-(chloromethyl)-3-methylazetidin-1-yl)methyl)-2-(3-(3-(fluoro(4-methyl-4H-1,2,4-triazol-3-yl)methyl)oxetan-3-yl)phenyl)-4-(trifluoromethyl)isoindolin-1-one] | 7.32 | 7.05 | 1.9x |
| CC(C)[C@H]1CN(C)CCN1Cc1cc2c(c(C(F)(F)F)c1)CN(c1cccc(C3(Cc4nncn4C)CCC3)c1)C2=O [Compound 410, (S)-6-((2-isopropyl-4-methylpiperazin-1-yl)methyl)-2-(3-(1-((4-methyl-4H-1,2,4-triazol-3-yl)methyl)cyclobutyl)phenyl)-4-(trifluoromethyl)isoindolin-1-one] | 7.92 | 7.11 | (0.62x) |
| Cn1cnnc1CC1(c2cccc(N3Cc4c(cc(CN5CC[C@H](CCl)C5)cc4C(F)(F)F)C3=O)c2)COC1 [Compound 102, (S)-6-((3-(chloromethyl)pyrrolidin-1-yl)methyl)-2-(3-(3-((4-methyl-4H-1,2,4-triazol-3-yl)methyl)oxetan-3-yl)phenyl)-4-(trifluoromethyl)isoindolin-1-one] | 7.74 | 7.60 | 1.4x |
| Cn1cnnc1[C@H](F)C1(c2cccc(N3Cc4c(Br)cc(CNC5(C)CCC5)cc4C3=O)c2)COC1 [Compound 471, (R)-4-bromo-2-(3-(3-(fluoro(4-methyl-4H-1,2,4-triazol-3-yl)methyl)oxetan-3-yl)phenyl)-6-(((1-methylcyclobutyl)amino)methyl) isoindolin-1-one] | 8.09 | 8.17 | (0.83x) |
| C[C@H](NC1(C)CCC1)c1cc2c(c(C(F)(F)F)c1)CN(c1cccc(C3([C@@H](F)c4nncn4C)COC3)c1)C2=O [Compound 248, 2-(3-(3-((R)-fluoro(4-methyl-4H-1,2,4-triazol-3-yl)methyl)oxetan-3-yl)phenyl)-6-((S)-1-((1-methylcyclobutyl)amino)ethyl)-4-(trifluoromethyl)isoindolin-1-one] | 8.17 | 8.28 | (0.79x) |
| CC(C)[C@H]1CN(CCF)CCN1Cc1cc2c(c(C(F)(F)F)c1)CN(c1cccc(C3([C@H](F)c4nncn4C)COC3)c1)C2=O [Compound 198, 2-(3-(3-((S)-fluoro(4-methyl-4H-1,2,4-triazol-3-yl)methyl)oxetan-3-yl)phenyl)-6-(((S)-4-(2-fluoroethyl)-2-isopropylpiperazin-1-yl)methyl)-4-(trifluoromethyl)isoindolin-1-one] | 7.85 | 7.68 | 1.5x |
| Cn1cnnc1CC(F)c1cccc(N2Cc3c(cccc3C(F)(F)F)C2=O)c1 (racemic) [Compound 14, 2-[3-[1-fluoro-2-(4-methyl-4H-1,2,4-triazol-3-yl)ethyl]phenyl]-4-(trifluoromethyl)isoindolin-1-one] | 5.00 | 4.70 | 2.0x |
| Cn1cnnc1[C@H](F)C1(c2cccc(N3Cc4c(cc(CN5CC(C)(CO)C5)cc4C(F)(F)F)C3=O)c2)CC1 [Compound 126, (R)-2-(3-(1-(fluoro(4-methyl-4H-1,2,4-triazol-3-yl)methyl)cyclopropyl)phenyl)-6((3-(hydroxymethyl)-3-methylazetidin-1-yl)methyl)-4-(trifluoromethyl)isoindolin-1-one] | 7.19 | 7.03 | 1.5x |
| Cn1cnnc1CC1(c2cc(NCC3CCNCC3)nc(N3Cc4c(cc(CNC5(C)CCC5)cc4C(F)(F)F)C3=O)c2)CCC1 [Compound 339, 2-(4-(1-((4-methyl-4H-1,2,4-triazol-3-yl)methyl)cyclobutyl)-6-((piperidin-4-ylmethyl)amino)pyridin-2-yl)-6-(((1-methylcyclobutyl)amino)methyl)-4-(trifluoromethyl)isoindolin-1-one] | 6.28 | 6.44 | (0.68x) |
| C[C@@H](c1cc2c(c(C(F)(F)F)c1)CN(c1cccc(C3([C@@H](F)c4nncn4C)COC3)c1)C2=O)N1CC(C)(F)C1 [Compound 108, 2-(3-(3((R)-fluoro(4-methyl-4H-1,2,4-triazol-3-yl)methyl)oxetan-3-yl)phenyl)-6-((S)-1-(3-fluoro-3-methylazetidin-1-yl)ethyl)-4-(trifluoromethyl)isoindolin-1-one] | 7.08 | 6.80 | 2.0x |
| C[C@@H](N)c1cc2c(c(C(F)(F)F)c1)CN(c1cccc(C3([C@@H](F)c4nncn4C)COC3)c1)C2=O [Compound 191, 6-((R)-1-aminoethyl)-2-(3-(3-((R)-fluoro(4-methyl-4H-1,2,4-triazol-3-yl)methyl)oxetan-3-yl)phenyl)-4-(trifluoromethyl)isoindolin-1-one] | 7.46 | 7.28 | 1.5x |
| Cn1cnnc1CC1(c2cc(NC3CC=CC3)nc(N3Cc4c(cccc4C(F)(F)F)C3=O)c2)COC1 [Compound 484, 2-(6-(cyclopent-3-en-1-ylamino)-4-(3-((4-methyl-4H-1,2,4-triazol-3-yl)methyl)oxetan-3-yl)pyridin-2-yl)-4-(trifluoromethyl)isoindolin-1-one] | 6.64 | 5.92 | (4.8x) |
| C=CCNc1cc(C2(Cc3nncn3C)CCC2)cc(N2Cc3c(cc(CN4CCN(C)C[C@@H]4C(C)C)cc3C(F)(F)F)C2=O)n1 [Compound 275, (S)-2-(6-(allylamino)-4-(1-((4-methyl-4H-1,2,4-triazol-3-yl)methyl)cyclobutyl)pyridin-2-yl)-6-((2-isopropyl-4-methylpiperazin-1-yl)methyl)-4-(trifluoromethyl)isoindolin-1-one] | 8.15 | 8.15 | (1.0x) |
| C[C@H](NC1(C)CCC1)c1cc2c(c(C(F)(F)F)c1)CN(c1cccc(C3(Cc4nncn4C)CC(F)(F)C3)c1)C2=O [Compound 246, (S)-2-(3-(3,3-difluoro-1-((4-methyl-4H-1,2,4-triazol-3-yl)methyl)-cyclobutyl)phenyl)-6-(1-((1-methylcyclobutyl)amino)ethyl)-4-(trifluoromethyl)isoindolin-1-one] | 8.24 | 8.36 | (0.76x) |
| CCNc1cc(C2(Cc3nncn3C)COC2)cc(N2Cc3c(cc(CN4CCN(C)C[C@@H]4C(C)C)cc3C(F)(F)F)C2=O)n1 [Compound 291, (S)-2-(6-(ethylamino)-4-(3-((4-methyl-4H-1,2,4-triazol-3-yl)methyl)oxetan-3-yl)pyridin-2-yl)-6-((2-isopropyl-4-methylpiperazin-1-yl)methyl)-4-(trifluoromethyl)isoindolin-1-one] | 7.92 | 8.09 | (0.69x) |
| Cn1cnnc1[C@@H](F)[C@@](C)(F)c1cccc(N2Cc3c(cc(CN4CC(C)(F)C4)cc3C(F)(F)F)C2=O)c1 [Compound 32, 2-(3-((1 R,2S)-1,2-difluoro-1-(4-methyl-4H-1,2,4-triazol-3-yl)propan-2-yl)phenyl)-6-((3-fluoro-3-methylazetidin-1-yl)methyl)-4-(trifluoromethyl)isoindolin-1-one] | 5.35 | 4.96 | 2.5x |
